{"source": "patent US6136992A", "about": "“2-alkoxy estradiols and derivatives thereof” (The United States of America as represented by the …, priority 1998, dated 2000)", "system": "HL-60(TB)", "assay": "NCI screen, leukemia", "type": "cell-based", "conditions": "Homo sapiens, read-out: Log10 GI50, HL-60(TB) (converted)", "data": [{"smiles": "C[C@]12CC[C@@H]3c4cc(OCC(F)(F)F)c(O)cc4C(=NO)C[C@H]3[C@@H]1CC[C@@H]2O", "note": "[Compound 12, 2-(2',2', 2'-Trifluoroethoxy)-6-Hydroximino-Estra-1,3,5(10)-Triene-3,17β-Diol]", "values": [{"measurement": "GI50", "value": "< 10", "unit": "nM"}]}]}
